We go through 21 compounds from patent US20250019385A1, “SPIROCYCLIC ANNULATED 2-AMINO-3-CYANO THIOPHENES AND DERIVATIVES FOR THE TREATMENT OF CANCER” (Boehringer Ingelheim International GmbH, priority 2023, published 2025).

Like-named read-outs stand apart in the source and are kept apart here.

The target of series [1] is KRAS (G12C)::SOS1 protein-protein interaction (Homo sapiens (Human), UniProt P01116, C118S/C51S/C80L/G12C). Description: KRAS::SOS1 AlphaScreen binding assay (KRAS G12C). As to conditions: GDP. An excerpt:
This assay can be used to examine the potency with which compounds according to the invention binding to (mutated) KRAS inhibit the protein-protein interaction between SOS1 and (mutated) KRAS e.g. KRAS G12C, KRAS G12D. […] Low IC50 values in this assay setting are indicative of strong inhibition of protein-protein interaction between SOS1 and KRAS:
These assays measure the inhibitory effect of compounds on KRAS mutant protein-protein interactions using the Alpha Screen technology by Perkin Elmer.
The following (mutant) enzyme forms of KRAS and interacting proteins are used in these assays at the given concentrations:
KRAS (G12C) 1-169, N-terminal 6His-tag for purification, cleaved off, C-terminal avi-tag, biotinylated, mutations: C51S, C80L, C118S (in house); final assay concentration 7.5 nM and SOS1 564-1049, N-terminal 229 GST-tag, TEV cleavage site (Viva Biotech Ltd); final assay concentration 5 nM;
Test compounds dissolved in DMSO are dispensed onto assay plates (Proxiplate 384 PLUS, white, PerkinElmer; 6008289) using an Access Labcyte Workstation with the Labcyte Echo 55x. For the chosen highest assay concentration of 100 μM, 150 nL of compound solution are transferred from a 10 mM DMSO compound stock solution. A series of eleven fivefold dilutions per compound are transferred to the assay plate, compound dilutions are tested in duplicates. DMSO are added as backfill to a total volume of 150 nL.
The assays run on a fully automated robotic system in a darkened room below 100 Lux. To 150 nl of compound dilution 10 μl of a mix including KRAS mutant protein, SOS1 (final assay concentrations see above) and GDP nucleotide (Sigma G7127; final assay concentration 10 μM) in assay buffer (1×PBS, 0.1% BSA, 0.05% Tween 20) are added into columns 1-24.
After 30 minutes incubation time 5 μl of Alpha Screen bead mix in assay buffer are added into columns 1-23. Bead mix consists of AlphaLISA Glutathione Acceptor Beads (PerkinElmer, Cat No AL109) and AlphaScreen Streptavidin Donor Beads (PerkinElmer Cat No 6760002) in assay buffer at a final assay concentration of 10 μg/mL each.
Plates are kept at room temperature in a darkened incubator. After an additional 60 minutes incubation time the signal is measured in a PerkinElmer Envision HTS Multilabel Reader using the AlphaScreen specs from PerkinElmer.
Each plate contains up to 16 wells of a negative control depending on the dilution procedure (platewise or serial) (DMSO instead of test compound; with KRAS mutant::SOS1 GOP mix and bead mix; column 23) and 16 wells of a positive control (DMSO instead of test compound; with KRAS mutant::SOS1 GOP mix w/o bead mix; column 24).
As internal control known inhibitors of KRAS mutant::SOS1 interaction can be measured on each compound plate.
IC50 values are calculated and analyzed with Boehringer Ingelheim's MEGALAB C50 application using a 4 parametric logistic model.
Tables of example compounds disclosed herein contain IC50 values determined using the above assays (see Table 43).
In general terms: Bead proximity is the source of the signal in Alpha formats.

Series [2] has as its system AsPC-1 cells. The series can be described thus: AsPC-1 CTG proliferation assay (120 h) (pancreatic cancer, G12D). It counts as cell-based. The method, then: (§1) AsPC-1 cells (ATCC CRL-1682) are dispensed into black 384-well plates, flat and clear bottom (Greiner, PNr. 781091) at a density of 500 cells per well in 60 μl RPMI ATCC-Formulation (PAN P04-18047)+10% FCS (fetal calf serum, HyClone, SH30084.03). Cells are incubated overnight at 37° C. in a humidified tissue culture incubator at 5% CO2. Compounds (10 mM stock in DMSO) are added at logarithmic dose series using the ECHO acoustic liquid handler system (Beckman Coulter), normalizing for added DMSO and including DMSO controls. All compound treatments are performed in technical duplicates. For the TO time point measurement, untreated cells are analyzed at the time of compound addition. Plates are incubated for 120 h, and cell viability is measured using CellTiter-Glo luminescent cell viability reagent (Promega product code G7570). Viability (stated as percent of control) is defined as relative luminescence units RLU of each well divided by the RLU of cells in DMSO controls. IC50 values are determined from viability measurements by non-linear regression using a four-parameter model.
(§2) IC50 values of representative compounds according to the invention measured with these assays in the indicated cell lines are presented in Table 46.

In series [3] the test system is MKN1 cells. The series can be described thus: MKN1 CTG proliferation assay (120 h) (gastric cancer, wt amplified). The class given is cell-based. To be noted: Homo sapiens, MKN-1. The procedure:
as §1, with “MKN1” for “AsPC-1”, “(JCRB0252)” for “(ATCC CRL-1682)”, “200” for “500”, “RPMI-1640” for “RPMI”, “(Gibco #A10491)+10%” for “(PAN P04-18047)+10%”
as §2

The nature of series [4]: Plasma protein binding assay (PPB), equilibrium dialysis. As to conditions: 10% FCS in PBS; for fraction unbound: bovine, read-out: PPB 10% FCS (% fu). The class given is in vitro ADME. The procedure:
Binding of test compounds to plasma was determined using equilibrium dialysis (ED) and quantitative mass spectrometry interfaced with liquid chromatography (LC-MS). In brief, ED was performed with dialysis devices consisting of two chambers separated by a semipermeable membrane with a molecular weight cut-off of 5-10 kg/mol. One chamber was filled with 10% FCS in PBS containing 1-10 μmol/L test compound and the other chamber was filled with phosphate-buffer saline (PBS) with or without dextran. The dialysis chamber was incubated for 3-5 hours at 37° C. After incubation, protein was precipitated from aliquots of each chamber and the concentration of test compound in the supernatant of the plasma-containing compartment (cserum) and of the buffer-containing compartment (cbuffer) was determined by LC-MS. The fraction of unbound test compound (not bound to plasma) (f) was calculated according to the following equation: […]
(In general: In equilibrium dialysis free small molecules cross a membrane that holds back macromolecules.)

KRAS (G12C)::SOS1 protein-protein interaction, sequence (P01116 other isoform, or with tags, fused parts or gaps G12C/C51S/C80L/C118S): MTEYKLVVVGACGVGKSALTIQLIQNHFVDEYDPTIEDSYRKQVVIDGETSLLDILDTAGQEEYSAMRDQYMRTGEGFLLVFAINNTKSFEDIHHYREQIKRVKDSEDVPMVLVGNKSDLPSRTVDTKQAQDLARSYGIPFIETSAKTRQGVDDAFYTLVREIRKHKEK

Turning to `COCCn1c(=O)n([C@@H]2CCOC2)c2nc(-c3onc4c3CCC[C@@]43CCCc4sc(N)c(C#N)c43)nc(O[C@@H](C)[C@@H]3CCCN3C)c21` [I-1], the IC50 in series [1] was found to be 2 nM; in series [2] (Homo sapiens, ASPC1), 705 nM; in series [3], 300 nM. Also, in series [4], the fraction unbound was 0.34.
For `CO[C@H]1C[C@@H]([C@H](C)Oc2nc(-c3onc4c3CCC[C@@]43CCCc4sc(N)c(C#N)c43)nc3c2n(C)c(=O)n3[C@@H]2CCOC2)N(C)C1` [I-2], in that order: 1 nM, 1970 nM, 95 nM and 0.15.
In the case of `C[C@H](Oc1nc(-c2onc3c2CCC[C@@]32CCCc3sc(N)c(C#N)c32)nc2c1n(C)c(=O)n2[C@@]12COC[C@@H]1C2)[C@@H]1CC[C@H](C)N1C` [I-45], the IC50 in series [2] (Homo sapiens, ASPC1) turned out to be 286 nM; in series [3], 11 nM. For the same compound, the fraction unbound in series [4] was determined as 0.2.
For `CO[C@@H]1C[C@@H]([C@H](C)Oc2nc(-c3onc4c3CCC[C@@]43CCCc4sc(N)c(C#N)c43)nc3c2n(C)c(=O)n3[C@@]23COC[C@@H]2C3)N(C)C1` [I-46], in that order: 292 nM, 9 nM and 0.32.
As to `C[C@H](Oc1nc(-c2onc3c2CCC[C@@]32CCCc3sc(N)c(C#N)c32)nc2c1n(C)c(=O)n2[C@H]1CO[C@@H](C)C1)[C@@H]1CCCN1C` [I-47], in series [4], the fraction unbound came to 0.13.
In the case of `C[C@H](Oc1nc(-c2onc3c2CCC[C@@]32CCCc3sc(N)c(C#N)c32)nc2c1n(C)c(=O)n2[C@H]1CO[C@@H](C)C1)[C@@H]1CC[C@H](C)N1C` [I-50], the fraction unbound in series [4] was 0.09.
For the compound `CO[C@H]1CCN(C)[C@@H]1[C@H](C)Oc1nc(-c2onc3c2CCC[C@@]32CCCc3sc(N)c(C#N)c32)nc2c1n(C)c(=O)n2[C@H]1COC[C@@H](C)C1` [I-51], the fraction unbound in series [4] came out at 0.07.
On the same count and under the same terms, next, `CO[C@@H]1C[C@@H]([C@H](C)Oc2nc(-c3onc4c3CCC[C@@]43CCCc4sc(N)c(C#N)c43)nc3c2n(C)c(=O)n3[C@H]2COC[C@@H](C)C2)N(C)C1` [I-52]: 0.06.
For `C[C@H](Oc1nc(-c2onc3c2CCC[C@@]32CCCc3sc(N)c(C#N)c32)nc2c1CN(C1COC1)C[C@]21CCOC1)[C@@H]1CC[C@H](C)N1C` [I-55], the IC50 is 202 nM in series [2] (Homo sapiens, ASPC1) and 18 nM in series [3]. Besides, the fraction unbound in series [4] is 0.2.
The matching figures for `C[C@H](Oc1nc(-c2onc3c2CCC[C@@]32CCCc3sc(N)c(C#N)c32)nc2c1CN(C1COC1)C[C@]21CCOC1)[C@@H]1CCCN1C` [I-56]: 92 nM, 15 nM and 0.3.
For `CO[C@H]1CCN(C)[C@@H]1[C@H](C)Oc1nc(-c2onc3c2CCC[C@@]32CCCc3sc(N)c(C#N)c32)nc2c1CN(C1COC1)C[C@]21CCOC1` [I-57], in that order: 129 nM, 1 nM and 0.28.
For `CO[C@@H]1C[C@@H]([C@H](C)Oc2nc(-c3onc4c3CCC[C@@]43CCCc4sc(N)c(C#N)c43)nc3c2CN(C2COC2)C[C@]32CCOC2)N(C)C1` [I-58], in that order: 314 nM, 21 nM and 0.24.
Turning to `C[C@H](Oc1nc(-c2noc3c2CCC[C@@]32CCCc3sc(N)c(C#N)c32)nc2c1n(C)c(=O)n2[C@H]1CO[C@@H](C)C1)[C@@H]1CCCN1C` [II-5], the IC50 in series [2] (Homo sapiens, ASPC1) is 40 nM; in series [3], 2 nM.
Regarding `CO[C@@H]1C[C@@H]([C@H](C)Oc2nc(-c3noc4c3CCC[C@@]43CCCc4sc(N)c(C#N)c43)nc3c2n(C)c(=O)n3[C@@]23COC[C@@H]2C3)N(C)C1` [II-6], the IC50 amounted to 265 nM in series [2] (Homo sapiens, ASPC1) and 12 nM in series [3]. Besides, the fraction unbound in series [4] is 0.07.
The matching figures for `C[C@H](Oc1nc(-c2noc3c2CCC[C@@]32CCCc3sc(N)c(C#N)c32)nc2c1CN(C1COC1)C[C@]21CCOC1)[C@@H]1CCCN1C` [II-12]: 129 nM, 10 nM and 0.19.
`CO[C@H]1CCN(C)[C@@H]1[C@H](C)Oc1nc(-c2noc3c2CCC[C@@]32CCCc3sc(N)c(C#N)c32)nc2c1CN(C1COC1)C[C@]21CCOC1` [II-13]: the IC50 in series [2] (Homo sapiens, ASPC1) was 43 nM; in series [3], 5 nM. In series [4], the fraction unbound came out at 0.09.
As to `CO[C@@H]1C[C@@H]([C@H](C)Oc2nc(-c3noc4c3CCC[C@@]43CCCc4sc(N)c(C#N)c43)nc3c2CN(C2COC2)C[C@]32CCOC2)N(C)C1` [II-14], the IC50 in series [2] (Homo sapiens, ASPC1) is 57 nM; in series [3] it was 19 nM. Further, in series [4], the fraction unbound came to 0.12.
In the case of `C[C@H](Oc1nc(-c2noc3c2CCC[C@@]32SCCc3sc(N)c(C#N)c32)nc2c1COC[C@]21CCOC1)[C@@H]1CCCN1C` [II-16], the IC50 was 34 nM in series [2] (Homo sapiens, ASPC1) and 4 nM in series [3].
As for `C[C@H](Oc1nc(-c2noc3c2CCC[C@@]32CCCc3sc(N)c(C#N)c32)nc2c1CN(C1COC1)C[C@]21CCOC1)[C@@H]1CC[C@H](C)N1C` [II-17], the IC50 in series [2] (Homo sapiens, ASPC1) was determined as 237 nM; in series [3] it was 20 nM. Besides, in series [4], the fraction unbound stood at 0.1.
In the case of `C[C@H](Oc1nc(-c2noc3c2CCC[C@@]32CCCc3sc(N)c(C#N)c32)nc2c1CCC21CCOC1)[C@@H]1CCCN1C` (stereo partly shown) [II-18], the IC50 in series [1] is 3 nM; in series [2] (Homo sapiens, ASPC1), 315 nM. Moreover, the fraction unbound in series [4] turned out to be 0.01.
Turning to `C[C@H](Oc1nc(-c2noc3c2CCC[C@@]32CCCc3sc(N)c(C#N)c32)nc2c1CC[C@]21CNCCO1)[C@@H]1C[C@@H](F)CN1C` [II-20], the IC50 worked out at 2 nM in series [1] and 215 nM in series [2]. For the same compound, in series [4] (fraction unbound), the “PPB 10% FCS (% fu)” value is given as 10 % fu.

The IC50 is the concentration that inhibits the measured activity by half.
